Experimental findings from PubChem BioAssay (NCI) are described below.

Common to all, as to experiment: NCI anticancer screen, dose series, 48 h
Assay [1] deals with MCF7 breast.
Assay [2] relates to HOP-62 NSCLC.
Assay [3] has as its system LOX IMVI melanoma.
For assay [4], the system named is HOP-92 NSCLC.
Assay [5] deals with NCI-H522 lung.
Assay [6] has as its system SK-OV-3 ovarian.
The subject of assay [7] is SK-MEL-5 melanoma.
Assay [8] deals with HL-60(TB) leukemia.
The test system of assay [9] is EKVX NSCLC.
Assay [10] relates to IGROV1 ovarian.

Where “and” joins values, the source holds several entries; their conditions need not be identical. Equal values may be shown once.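 Results reflect a 48-hour exposure of cells in 96-well plates to compound at five concentrations. GI50 marks 50% less growth. Definition used: TGI = concentration required for complete inhibition of growth.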 Where only a bound is given, the exact number is not on record here.

Take `CC#CC#C/C=C1\C=CC2(OC=CC2OC(C)=O)O1` (configuration not stated): the TGI in [1] is 30.8 µM; in assay [2], greater than 100 µM; in assay [3], > 100 µM and 31.7 µM; in [4] it was 51.6 µM and 44.1 µM; in assay [5] it was 39.2 µM and 11.1 µM; in assay [6], greater than 100 µM. Further, the TGI in assay [7] was 36.8 µM; in [8], 36.5 µM and > 86.7 µM; in assay [9] it was greater than 100 µM; in [10], greater than 100 µM. The GI50 in assay [5] was 14.7 µM and 5.72 µM.
For `CCOc1cc2c(=O)oc3c(OC)ccc4ccc(c1OC)c2c43`, the TGI in assay [1] is greater than 100 µM; in assay [2] it was greater than 100 µM; in [3], greater than 100 µM; in assay [4] it was greater than 100 µM; in assay [5], 90.7 µM; in assay [6], greater than 100 µM. In addition, the TGI in [7], in assay [8], in assay [9] and in assay [10] was greater than 100 µM throughout.
Regarding `COc1ccc(C2=N[C@@H](c3ccc(Cl)cc3)[C@@H](c3ccc(Cl)cc3)N2C(=O)N2CCNC(=O)C2)c(OC(C)C)c1`, the GI50 in assay [1] was 13 µM and 2.43 µM and 2.27 µM; in [2], 16.5 µM and 15 µM and 16.1 µM; in assay [3], 13.8 µM and 4.07 µM and 2.81 µM; in assay [4], 14.9 µM and 10.7 µM; in [5] it was 14.6 µM and 13.6 µM and 16.3 µM; in assay [6] it was 16.8 µM and 15.9 µM and 15.4 µM. For the same compound, the GI50 in [7] is 14.1 µM and 5.35 µM and 6.56 µM; in [8] it was 15.1 µM and 18.1 µM and 18.5 µM; in assay [9], 10.3 µM and 12.1 µM and 12.9 µM; in [10], 13.1 µM and 6.5 µM and 5.08 µM. Besides, the TGI was 28.2 µM and 12.9 µM and 13 µM in assay [1]; 31.1 µM and 30.5 µM and 33.3 µM in assay [2]; 27.4 µM and 19.3 µM and 18.3 µM in assay [3]; 31.9 µM and 23.9 µM and 24.8 µM in [4]; 28.5 µM and 27.3 µM and 31.1 µM in assay [5]; 30.8 µM and 30.9 µM and 30.4 µM in assay [6]. The TGI in assay [7] is 27.2 µM and 17.7 µM and 19.6 µM; in [8], 35.8 µM and 42.3 µM and 51 µM; in [9], 24.1 µM and 25.2 µM and 27.3 µM; in [10], 29.4 µM and 26.2 µM and 26.5 µM.
`COc1ccc2c(c1)C(=O)c1c-2c(N2CCN(C(=O)CNCCN(C)C)CC2)nc2ccccc12`: the GI50 in assay [1] is 1.62 µM; in assay [2] it was 1.86 µM; in [3] it was 1.71 µM; in assay [4], 1.57 µM; in [5], 1.76 µM; in assay [6] it was 14 µM. The GI50 in [7] is 4.49 µM; in assay [8], 2.4 µM; in assay [9], 3.87 µM; in assay [10], 1.11 µM. In addition, the TGI was 3.11 µM in [1]; 4.18 µM in assay [2]; 3.33 µM in assay [3]; 4.15 µM in [4]; 3.44 µM in assay [5]; 27.5 µM in [6]. Besides, the TGI in assay [7] turned out to be 16.7 µM; in [8], 6.31 µM; in [9], 15.7 µM; in assay [10], 2.69 µM.
`O=C1C(Br)=C(Br)C(=O)c2ccccc21`: the TGI in assay [1] is greater than 100 µM; in assay [2], 37.6 µM and 44.4 µM; in assay [3], 31.4 µM and 12.3 µM; in [4] it was 27 µM and 4.59 µM; in assay [5], 29.9 µM and 15.5 µM; in [6], 31.1 µM and 13.2 µM. Moreover, the TGI was 23.3 µM in assay [7]; 15.6 µM in [8]; > 100 µM and 39.9 µM in assay [9]; 45.5 µM and 17.4 µM in [10]. The GI50 was 16.5 µM and 4.69 µM in assay [3]; 13.4 µM and 1.73 µM in [4]; 16.3 µM and 3.77 µM in assay [5]; 16.1 µM and 5.4 µM in assay [6]; 100 µM and 20 µM in assay [9]; 16.9 µM and 6.06 µM in [10].
Turning to `CC[C@H](C)[C@H](NC(=O)NC(C)(C)C)C(=O)N(C)[C@H](C[C@@H](OC(C)=O)c1nc(C(=O)N[C@@H](Cc2ccccc2)C[C@H](C)C(=O)OC)cs1)C(C)C`, the GI50 in assay [1] is 0.123 µM; in assay [2] it was 0.846 µM; in [3] it was 0.768 µM; in assay [4], 3 µM; in assay [5] it was 0.107 µM; in assay [6] it was 0.734 µM. Moreover, the GI50 is 0.139 µM in [7], 0.374 µM in assay [8], 1.24 µM in assay [9] and 0.556 µM in assay [10]. The TGI in assay [1] is greater than 25 µM; in assay [2] it was greater than 25 µM; in assay [3], greater than 25 µM; in assay [4], greater than 25 µM; in assay [5], 0.765 µM; in assay [6] it was greater than 25 µM. Moreover, the TGI in assay [7] was 0.604 µM; in assay [8], 1.56 µM; in [9], greater than 25 µM; in assay [10], greater than 25 µM.
As to `Nc1nccc2c1ccn2-c1cccc(NC(=O)c2ccc(N3CCOCC3)c(C(F)(F)F)c2)c1`, the GI50 was 0.181 µM in assay [1]; 1.27 µM in assay [2]; 0.997 µM in assay [3]; 0.347 µM in [4]; 0.288 µM in [5]; 0.741 µM in assay [6]. Also, the GI50 was 0.386 µM in assay [7], 1.09 µM in assay [8], 1.99 µM in assay [9] and 0.869 µM in [10]. In addition, the TGI is greater than 18.5 µM in assay [1]; greater than 25.8 µM in [2]; greater than 16.2 µM in assay [3]; 3.23 µM in assay [4]; 2.45 µM in [5]; 6.52 µM in assay [6]. The TGI in assay [7] is 1.75 µM; in assay [8], 7.83 µM; in assay [9], greater than 50 µM; in assay [10] it was greater than 46.5 µM.
On to `Fc1cccc(Cl)c1Cn1c(-c2c(F)cccc2Cl)nc2ccccc21`, for which the GI50 is 20 µM in [1]; 23.2 µM in assay [2]; 20.5 µM in assay [3]; 13.9 µM in [4]; 13.3 µM in assay [5]; 18.4 µM in [6]. Besides, the GI50 in assay [7] is 11.6 µM; in [8] it was 3.86 µM; in assay [9] it was 13.3 µM; in assay [10] it was 21.9 µM. Moreover, the TGI in assay [1] stood at 57.8 µM; in assay [2], 50.6 µM; in [3], 42.2 µM; in [4] it was 38.5 µM; in assay [5], 44.5 µM; in assay [6] it was 44.6 µM. Moreover, the TGI is 29.8 µM in assay [7], 74.6 µM in assay [8], 32.6 µM in assay [9] and greater than 100 µM in [10].
